# In ChEMBL document CHEMBL1156532, “Model structure of the Na+/H+ exchanger 1 (NHE1): functional and clinical implications” (J Biol Chem, 2007):
# Assays:
# [1] = Antiporter activity in Escherichia coli K12 wild type EcNhaA F72C mutant assessed as effect on sodium chloride-induced pH changes by acridine orange fluorescence assay
# [2] = target: T1, Na(+)/H(+) antiporter NhaA (Escherichia coli K-12, UniProt P13738); experiment: Antiporter activity in Escherichia coli K12 wild type EcNhaA assessed as effect on lithium chloride-induced pH changes by acridine orange fluorescence assay
# T1 sequence (P13738 whole entry): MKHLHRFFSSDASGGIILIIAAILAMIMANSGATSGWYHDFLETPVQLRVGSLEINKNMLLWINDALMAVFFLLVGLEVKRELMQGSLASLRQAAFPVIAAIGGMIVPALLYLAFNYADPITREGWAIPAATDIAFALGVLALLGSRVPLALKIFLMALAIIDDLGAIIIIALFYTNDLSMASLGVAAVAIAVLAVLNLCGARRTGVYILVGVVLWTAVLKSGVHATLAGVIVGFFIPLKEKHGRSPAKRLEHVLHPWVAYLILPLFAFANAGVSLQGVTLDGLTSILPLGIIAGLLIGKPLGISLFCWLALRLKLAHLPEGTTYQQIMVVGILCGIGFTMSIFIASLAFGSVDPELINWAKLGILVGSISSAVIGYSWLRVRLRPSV
# [3] = Antiporter activity in Escherichia coli K12 wild type EcNhaA H225Q mutant assessed as effect on lithium chloride-induced pH changes by acridine orange fluorescence assay
# [4] = target: T1, Na(+)/H(+) antiporter NhaA; experiment: Antiporter activity in Escherichia coli K12 wild type EcNhaA assessed as effect on sodium chloride-induced pH changes by acridine orange fluorescence assay
# [5] = target: T2, Na(+)/H(+) antiporter NhaA (Escherichia coli K-12, UniProt P13738, H225R); experiment: Antiporter activity in Escherichia coli K12 wild type EcNhaA H225R mutant assessed as effect on sodium chloride-induced pH changes by acridine orange fluorescence assay
# [6] = Antiporter activity in Escherichia coli K12 wild type EcNhaA N64C mutant assessed as effect on lithium chloride-induced pH changes by acridine orange fluorescence assay
# [7] = Antiporter activity in Escherichia coli K12 wild type EcNhaA W62C mutant assessed as effect on lithium chloride-induced pH changes by acridine orange fluorescence assay
# [8] = target: T2, Na(+)/H(+) antiporter NhaA; experiment: Antiporter activity in Escherichia coli K12 wild type EcNhaA H225R mutant assessed as effect on lithium chloride-induced pH changes by acridine orange fluorescence assay
# [9] = Antiporter activity in Escherichia coli K12 wild type EcNhaA N64C mutant assessed as effect on sodium chloride-induced pH changes by acridine orange fluorescence assay
# [10] = Antiporter activity in Escherichia coli K12 wild type EcNhaA F71C mutant assessed as effect on sodium chloride-induced pH changes by acridine orange fluorescence assay
# [11] = target: Na(+)/H(+) antiporter NhaA (Escherichia coli K-12, UniProt P13738, W62C); experiment: Antiporter activity in Escherichia coli K12 wild type EcNhaA W62C mutant assessed as effect on sodium chloride-induced pH changes by acridine orange fluorescence assay
# [12] = Antiporter activity in Escherichia coli K12 wild type EcNhaA G76C mutant assessed as effect on sodium chloride-induced pH changes by acridine orange fluorescence assay
# [13] = target: Na(+)/H(+) antiporter NhaA (Escherichia coli K-12, UniProt P13738, H225Q); experiment: Antiporter activity in Escherichia coli K12 wild type EcNhaA H225Q mutant assessed as effect on sodium chloride-induced pH changes by acridine orange fluorescence assay
# [14] = Antiporter activity in Escherichia coli K12 wild type EcNhaA G76C mutant assessed as effect on lithium chloride-induced pH changes by acridine orange fluorescence assay
# [15] = target: Na(+)/H(+) antiporter NhaA (Escherichia coli K-12, UniProt P13738, F71C); experiment: Antiporter activity in Escherichia coli K12 wild type EcNhaA F71C mutant assessed as effect on lithium chloride-induced pH changes by acridine orange fluorescence assay
# [16] = Antiporter activity in Escherichia coli K12 wild type EcNhaA F72C mutant assessed as effect on lithium chloride-induced pH changes by acridine orange fluorescence assay
# T2 sequence (P13738 whole entry H225R): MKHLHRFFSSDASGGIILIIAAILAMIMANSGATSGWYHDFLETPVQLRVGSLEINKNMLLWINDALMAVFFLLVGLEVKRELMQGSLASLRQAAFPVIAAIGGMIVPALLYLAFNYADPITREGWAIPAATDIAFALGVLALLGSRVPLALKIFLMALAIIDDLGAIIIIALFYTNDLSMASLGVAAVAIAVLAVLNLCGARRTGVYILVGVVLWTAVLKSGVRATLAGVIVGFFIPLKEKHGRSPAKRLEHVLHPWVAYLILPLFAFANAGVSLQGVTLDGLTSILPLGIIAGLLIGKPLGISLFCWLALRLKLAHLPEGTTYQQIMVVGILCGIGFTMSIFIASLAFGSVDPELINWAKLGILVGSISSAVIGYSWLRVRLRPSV
# Chain of Na(+)/H(+) antiporter NhaA (Escherichia coli K-12, UniProt P13738, F71C) (P13738 whole entry F71C): as the sequence (P13738 whole entry H225R) above, with F71C, R225H counted along it
# Chain of Na(+)/H(+) antiporter NhaA (Escherichia coli K-12, UniProt P13738, W62C) (P13738 whole entry W62C): as the sequence (P13738 whole entry H225R) above, with W62C, R225H counted along it
# Chain of Na(+)/H(+) antiporter NhaA (Escherichia coli K-12, UniProt P13738, H225Q) (P13738 whole entry H225Q): as the sequence (P13738 whole entry H225R) above, with R225Q counted along it
structure (smiles),measurement,setting,value
NC1=Nc2cccc3cccc(c23)N1,IC50,[1],1800 nM
same,IC50,[2],2200 nM
same,IC50,[3],7800 nM
same,IC50,[4],1700 nM
same,IC50,[5],1000 nM
same,IC50,[6],17000 nM
same,IC50,[7],1500 nM
same,IC50,[8],2300 nM
same,IC50,[9],500 nM
same,IC50,[10],300 nM
same,IC50,[11],1200 nM
same,IC50,[12],1600 nM
same,IC50,[13],800 nM
same,IC50,[14],1200 nM
same,IC50,[15],800 nM
same,IC50,[16],2600 nM
